These results are taken from patent US5679663A, “Pharmaceutical compounds” (priority 1996, dated 1997).

Structures can show the parent of a compound that is named as a salt.

The nature of one data set: Solubility. To be noted: for solubility compared with the compound described under (A): relative to Example 5(A).
Data set [1] concerns learned helplessness (avoidance reaction). Put plainly: Learned helplessness model (avoidance reaction, shuttle chamber). Format: in vivo, mice. To be noted: for Average latence of avoidance period / Percent of nonavoidance from total test number / Average latence of avoidable period: CAPAH 90 mg/kg, melipramine 7 mg/kg, i.p. The protocol: The phenomenon of learned helplessness is that exposure to uncontrollable stress produces deficits in subsequent learning tasks. The preliminary non-avoidable aversive phase of the test was carried out in dark chambers (30 cm×15 cm×15 cm) with electrodes in the floor. Mice were placed into the chambers individually where they received a number of stimuli (150 mkA, 60 Hz) for 6 seconds with 30 second intervals. Exposure lasted for 40 minutes. 24 hours later the animals were tested in a "shuttle" chamber which consisted of two compartments with the electrode floor connected by the opening situated 1 cm above the base. The entrance to the neighbouring compartment was blocked by a door operated automatically. Stimulation (150 mkA) was directed in turn to each compartment with 30 second intervals and 4 seconds lag. After 10 sessions the door was closed and electric current stopped. The average summary latent time of avoidance was estimated as well as the total number of non-fulfilled reactions.
Experiments were carried out in 40 male […] weighing 18-20 g. Melipramine was used as a standard preparation. Preparations were injected intraperitoneally in doses: CAPAH--90 mg/kg, melipramine--7 mg/kg. Control animals received an equal quantity of distilled water. In the first control group (control 1) mice were not exposed to non-avoidable aversive stimulations; in the second control group (control 2) the animals were exposed to the preliminary non-avoidable aversive influence but without drug preparations.

For a further data set, the system named is hypoxia induced amnesia. Put plainly: Hypoxia induced amnesia, passive avoidance test. The format is in vivo, Mongolian Gerbil. The source says: (§1) The protective effect of the compound CAPAH was studied in relation to both scopolamine and hypoxia induced amnesia in gerbils by the passive avoidance test.
(§2) Gerbils underwent a training schedule of "passive avoidance", i.e. they learned not to enter a dark compartment into which an electric shock was delivered.
The gerbils were trained as described above. To produce a hypoxic environment a gas-mixture (4% oxygen, 96% nitrogen) was blown through a plastic box (12 l/min). Immediately after the training period the gerbil was put into this hypoxic environment and removed when gasping was shown (maximum stay in the hypoxic box is 40 seconds).
(§3) The gerbils were trained as described above in a step-down type passive avoidance apparatus (Model E13-08, Coulbourn Instruments, Lehigh Valley, USA), divided into a safe part and a grill part. […] Training of the passive avoidance was carried out for 5 minutes. The gerbils were placed on the safety platform and received a series of mild electric shocks, […] (shock sensitivity determined for each batch of gerbils) for 3 seconds every 6 seconds when it stepped off the grill. Gerbils were returned to the apparatus for testing 24 hours later and their step-down latencies to the grill floor (recall latency) were recorded (maximum 60 seconds).
(§4) In both these series of experiments Piracetam was used as a control.

Data set [2] deals with scopolamine induced amnesia. Put plainly: Scopolamine induced amnesia, passive avoidance test. The format is in vivo, Mongolian Gerbil. The protocol: as §1, §2
Scopolamine Induced Amnesia
Gerbils received an intra-peritoneal injection of scopolamine (0.5 mg/kg) 30 minutes before the training procedure. The ability of CAPAH, given prior to scopolamine, to prevent the induced amnesia was determined.
as §3, §4

Data set [3] concerns hypoxia induced by sodium nitrite. Put plainly: Lifetime following hypoxia induced by sodium nitrite. The format is in vivo, white mice. The note with it: 90 mg/kg i.p. The method, then:
(§5) The potential of CAPAH to provide neuroprotection following a stroke was illustrated by its anti-hypoxic properties in mice using both hypoxia induced directly by lack of oxygen in the atmosphere and hypoxia induced by sodium nitrite injection.
White mice in groups of eight with a weight in the range of 18 to 21 grams were injected subcutaneously with 300 mg/kg of aqueous sodium nitrite and their subsequent lifetime was recorded. A control group of mice received no additional pre-treatment but a second group received a prior intraperitoneal injection of 90 mg/kg CAPAH.

In data set [4] the test system is haloperidol-induced catalepsy. Put plainly: Impact on catalepsy caused by haloperidol. Format: in vivo. To be noted: 100 mg/kg. The method, then: Catalepsy was evaluated from the animal's ability to maintain an awkward posture (hind legs placed on a 30 mm high pedestal and forelegs on the bench) for 90 seconds at intervals of 10, 60 and 120 minutes after the latest administration of haloperidol.

The subject of data set [5] is mice immobilization (behavioural despair). Put plainly: Behavioural despair model (duration of immobilization, swimming). The note with it: 90 mg/kg; for Duration of mice immobilization, behavioural despair test: 6 minutes of observation. The format is in vivo, mice (tetrahybrids SVA). The method, then:
In this test, mice (tetrahybrids SVA) were obliged to swim in a limited space, presented as a cylindrical vessel which was 15 cm high containing a water level of 6 cm maintained at a temperature of 21° C. A "slowing down" of swimming activity was observed. This "slowing down" is regarded to reflect the state of lowering of spirits and increasing despair of the mice. The slowing down is diminished by anti-depressants.
CAPAH was investigated in acute and chronic application (for 10 days). The mean duration of animal immobility for 6 minutes of observation was estimated in seconds.
CAPAH was injected in a dose of 90 mg/kg 40 minutes before the experiment.

Data set [6] concerns hypoxia induced by direct lack of oxygen. Put plainly: Lifetime following hypoxia induced by direct lack of oxygen. Format: in vivo, white mice. The method, then:
as §5
White mice in groups of six with a standard weight of 18 grams were placed in hermetically sealed jars and the lifetime of the animals was recorded.

Data set [7] relates to L-dopa induced hypothermia and motor activity. Put plainly: Interaction with L-dopa (hypothermia, depression and reduction of motor activity). To be noted: 100 mg/kg; L-dopa 150 mg/kg, mice. The format is in vivo. The protocol: L-3,4-dihydroxyphenylalanine (L-dopa) was administered in a 150 mg/kg dose, which induces hypothermia, depression and reduction of motor activity.

Data set [8] relates to apomorphine-induced hypothermia. Put plainly: Apomorphine-induced hypothermia in mice. To be noted: 90 mg/kg, 40 min before apomorphine 25 mg/kg s.c. The format is in vivo. The method, then: The effect of CAPAH on apomorphine-induced hypothermia and stereotypy was evaluated. The hypothermia was induced by subcutaneously injecting mice with 25 mg/kg of apomorphine. The change in skin temperature was recorded by a TPEM-1 thermometer immediately before injecting with apomorphine and also 60 and 120 minutes after the administration.
(§6) Stereotypy in rats was induced by subcutaneous administration of 20 mg/kg of apomorphine. The total duration of the stereotypy episode was evaluated and also the intensity of individual components thereof (licking, gnawing, sniffing). CAPAH was administered 40 minutes before the apomorphine as a 90 mg/kg dose to the mice and 100 mg/kg dose to the rats.

The test system of data set [9] is apomorphine-induced stereotypy. Put plainly: Apomorphine-induced stereotypy in rats. The format is in vivo. The note with it: 100 mg/kg, 40 min before apomorphine 20 mg/kg s.c. The method, then: as §6
The nature of data set [10]: Toxicity (LD100, LD50, MTD). The format is in vivo. The note with it: for LD50 / MTD: in vivo; for LD50 / MTD / LD100: species and route not given; for MTD: read-out: MTD (maximum tolerance dose).
A short description of data set [11]: Pharmacological investigation (central nervous system). The note with it: in vivo.
For data set [12] the following is noted: U.S. Pat. Nos. 4,162,264 and 4,162,311; cited from earlier work.

On to `CN(C)c1ccc(P(=O)(CC(=O)NN=Cc2ccccc2O)OCCCl)cc1` (stereo not drawn) [N^β -o-hydroxybenzylidene], for which, in “Solubility”, the “solubility compared with the compound described under (A)” value is “similar”.
For `CN(C)CCCN1c2ccccc2CCc2ccccc21` [Melipramine, reference compound], in [1] (6-fold injection), the “Average latence of avoidance period” value was 11.8 ± 1.5 and the “Percent of nonavoidance from total test number” value (“Percent of nonavoidance” for short) is recorded as 29%. Besides, in data set [1] (12-fold injection), the “Average latence of avoidable period” value turned out to be 9.2 ± 1.1 and the “Percent of nonavoidance” value is given as 11%. Also, in data set [1] (single injection), the “Average latence of avoidable period” value was 13.5 ± 1.8 and the “Percent of nonavoidance” value is on record as 43%.
On to `CN(C)c1ccc(P(=O)(CC(=O)NN=Cc2cccc([N+](=O)[O-])c2)OCCCl)cc1` (stereo not drawn) [N^β -m-nitrobenzylidene], for which, in the data set “Solubility”, the “solubility compared with the compound described under (A)” value is reported as “similar”.
With `NC(=O)CN1CCCC1=O` [Piracetam, reference compound], the “Latency (sec ± SEM), hypoxia induced amnesia” value with hypoxia induced amnesia (100 mg/kg) was determined as 107 ± 19 s. For the same compound, the “Latency (sec ± SEM), scopolamine induced amnesia” value in [2] (100 mg/kg) worked out at 73 ± 24 s.
One may read the LD50 as the dose at which mortality reaches 50%. Read a low LD50 as greater toxicity. One may read the MTD as the highest dose tested that stayed within the study's limit of toxicity. In the case of `CN(C)c1ccc(P(=O)(CC(=O)NN)OCCCl)cc1` (stereo not drawn) [CAPAH, (2-chloroethoxy)(p-N,N-dimethylaminophenyl)phosphinylacetohydrazide], the “Latency (sec ± SEM), hypoxia induced amnesia” value in the data set on hypoxia induced amnesia (1 mg/kg) came out at 135 ± 21 s; with hypoxia induced amnesia (10 mg/kg), 111 ± 25 s; with hypoxia induced amnesia (30 mg/kg), 71 ± 28 s; with hypoxia induced amnesia (100 mg/kg), 119 ± 23 s; with hypoxia induced amnesia (300 mg/kg) it was 20 ± 8 s. In the data set on hypoxia induced amnesia (300 mg/kg (1/3 DL50)), the “toxicity of the dose” value was “toxic”. Further, the “activity in hypoxia induced amnesia test” value in the data set on hypoxia induced amnesia (doses 1, 10, 100 mg/kg) is “active”; with hypoxia induced amnesia (doses 30, 300 mg/kg), “Activity was absent”. Moreover, in [3], the “effect on lifetime, hypoxia induced by sodium nitrite” value was “extension of lifetime”. In data set [3] (sodium nitrite 300 mg/kg s.c.), the “Lifetime (± deviation), hypoxia induced by sodium nitrite” value was found to be 16.9 ± 1.0 min. The dopamine-mimetic activity result in data set [4] is “reveals dopamine-mimetic activity”. In addition, in [4] (haloperidol 5 mg/kg hypodermic injection), the “effect on haloperidol induced catalepsy” value is given as “reduces haloperidol induced catalepsy”. For the same compound, in data set [5] (repeated application), the “duration of "slowing down" (anti-depressant activity)” value is given as “lessens the duration of "slowing down"”. Also, the “Duration of mice immobilization, behavioural despair test” value was found to be 177.5 ± 17.5 in [5] (repeated injection (10 days)) and 210 ± 22.5 s in data set [5] (single injection, 40 min before). Moreover, the “Lifetime (± deviation), hypoxia by direct lack of oxygen” value in data set [6] (30 mg/kg i.p., second experiment) is 16.4 ± 1.2 min; in [6] (45 mg/kg i.p., first experiment), 18.8 ± 1.1 min; in [6] (90 mg/kg i.p., first experiment) it was 17.0 ± 0.1 min. Moreover, in data set [6] (90 or 45 mg/kg), the “effect on lifetime, hypoxia by direct lack of oxygen” value is listed as “extension of lifetime”. Also, in [7], the “activity on L-dopa induced effects” value is reported as “no activity”. For the same compound, the “effect on apomorphine-induced hypothermia” value in data set [8] was “no effect”. Moreover, the “Latency (sec ± SEM), scopolamine induced amnesia” value stood at 35 ± 17 s in data set [2] (1 mg/kg); 52 ± 21 s in data set [2] (10 mg/kg); 36 ± 17 s in data set [2] (30 mg/kg); 49 ± 16 s in data set [2] (100 mg/kg); 76 ± 30 s in [2] (300 mg/kg). Further, the “memory enhancement in scopolamine-induced amnesia” value in data set [2] (lower doses (below 300 mg/kg)) is given as “a trend towards memory enhancement”. Moreover, in data set [2] (only at 300 mg/kg), the “reversal of scopolamine-induced amnesia” value was “Statistically significant reversal”. Besides, the “anti-depressant effects, learned helplessness” value in [1] (90 mg/kg, single and chronic treatment) was “marked anti-depressant effects”. For the same compound, the “Average latence of avoidance period” value in data set [1] (6-fold injection) is 9.0 ± 0.7. For the same compound, the “Percent of nonavoidance” value in [1] (6-fold injection) is on record as 2%; in [1] (12-fold injection), 1.3%; in data set [1] (single injection), 19%. For the same compound, the “Average latence of avoidable period” value was 7.9 ± 0.7 in data set [1] (12-fold injection) and 12.1 ± 1.5 in [1] (single injection). In addition, in [9], the “effect on apomorphine-induced stereotypy” value is “no effect”. Further, the “interval between the maximum tolerance dose (MTD) and the LD100” value in data set [10] (comparison with DPAH) is given as “significantly greater interval”. Also, the “toxicity compared with DPAH” value in data set [10] (comparison with DPAH) was “less toxic”. This compound registered an LD50 in data set [10] of 960 ± 35 mg/kg. The maximal tolerated dose (MTD) in data set [10] is 700 mg/kg. The LD100 in data set [10] is given as 1200 mg/kg. For the same compound, in data set [11], the “effect on the central nervous system” value is listed as “selectively affects the central nervous system”.
With `CN(C)c1ccc(P(=O)(CC(=O)NN)OCCCl)cc1` (stereo not drawn) [CAPAH hydrochloride], the water solubility result in the data set “Solubility” (water) is “high water solubility”.
With `NNC(=O)CP(=O)(c1ccccc1)c1ccccc1` [DPAH, diphenylphosphinylacetohydrazide, reference compound], the “properties of DPAH” value in data set [12] is “vegetropic, anti-epileptic and anti-serotonin properties”. Also, in data set [10], the LD50 is 315 ± 24.8 mg/kg, the maximum tolerated dose (MTD) came to 200 mg/kg and the LD100 was determined as 500 mg/kg.
As for `CC=CC=NNC(=O)CP(=O)(OCCCl)c1ccc(N(C)C)cc1` (stereo not drawn) [Example 5(A), N^β -(but-2-enylidene)-(2-chloroethoxy)-(p-N,N-dimethylaminophenyl)phosphinylacetohydrazide], in “Solubility” (dimethyl sulphoxide and other aprotic polar solvents), the “solubility in dimethyl sulphoxide and other aprotic polar solvents” value was “soluble in dimethyl sulphoxide and other aprotic polar solvents”. In addition, in “Solubility” (most organic solvents and water), the “solubility in most organic solvents and in water” value is “poorly soluble”.
With `CN(C)c1ccc(P(=O)(CC(=O)NN=CC=Cc2ccccc2)OCCCl)cc1` (stereo not drawn) [N^β -cinnamaylidene], in the data set “Solubility”, the “solubility compared with the compound described under (A)” value is “similar”.
